{
  "source": "the kinase profiling compilation of Christmann-Franck et al. (2016)",
  "experiment_in_all_cases": "radiometric filter-binding kinase assay",
  "key": {"[1]": {"system": "AKT1 (human), P31749 [S473D]"}, "[2]": {"biological_target": "AURKA (human) (UniProt O14965)"}, "[3]": {"biological_target": "BRSK2 (human) (UniProt Q8IWQ3)"}, "[4]": {"biological_target": "CHEK2 (human) (UniProt O96017)", "settings": "compound 10.0 µM"}, "[5]": {"biological_target": "CaMK1 (human) (UniProt Q14012)"}, "[6]": {"biological_target": "DYRK1A (human) (UniProt Q13627)", "settings": "compound 10.0 µM"}, "[7]": {"biological_target": "DYRK2 (human) (UniProt Q92630)", "sequence (Q92630 whole entry, looked up)": "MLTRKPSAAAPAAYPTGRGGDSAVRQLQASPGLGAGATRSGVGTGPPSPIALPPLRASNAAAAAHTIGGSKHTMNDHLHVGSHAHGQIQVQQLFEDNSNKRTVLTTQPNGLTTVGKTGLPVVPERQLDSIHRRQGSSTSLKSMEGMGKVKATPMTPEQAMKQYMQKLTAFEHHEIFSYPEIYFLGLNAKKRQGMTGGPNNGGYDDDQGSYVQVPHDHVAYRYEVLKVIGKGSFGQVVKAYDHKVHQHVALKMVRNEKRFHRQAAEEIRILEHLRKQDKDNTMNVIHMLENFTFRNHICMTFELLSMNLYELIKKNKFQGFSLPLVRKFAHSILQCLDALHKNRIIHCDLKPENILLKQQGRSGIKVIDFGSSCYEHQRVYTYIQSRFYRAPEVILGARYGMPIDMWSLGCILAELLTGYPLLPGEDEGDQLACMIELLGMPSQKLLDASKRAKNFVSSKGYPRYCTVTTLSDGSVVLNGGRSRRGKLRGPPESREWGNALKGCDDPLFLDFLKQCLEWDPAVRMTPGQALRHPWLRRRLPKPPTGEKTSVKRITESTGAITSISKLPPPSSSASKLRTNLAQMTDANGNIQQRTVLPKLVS"}, "[8]": {"biological_target": "EPHB2 (human) (UniProt P29323)"}, "[9]": {"biological_target": "EPHB3 (human) (UniProt P54753)"}, "[10]": {"biological_target": "ERBB4 (human) (UniProt Q15303)", "sequence (Q15303 whole entry, looked up)": "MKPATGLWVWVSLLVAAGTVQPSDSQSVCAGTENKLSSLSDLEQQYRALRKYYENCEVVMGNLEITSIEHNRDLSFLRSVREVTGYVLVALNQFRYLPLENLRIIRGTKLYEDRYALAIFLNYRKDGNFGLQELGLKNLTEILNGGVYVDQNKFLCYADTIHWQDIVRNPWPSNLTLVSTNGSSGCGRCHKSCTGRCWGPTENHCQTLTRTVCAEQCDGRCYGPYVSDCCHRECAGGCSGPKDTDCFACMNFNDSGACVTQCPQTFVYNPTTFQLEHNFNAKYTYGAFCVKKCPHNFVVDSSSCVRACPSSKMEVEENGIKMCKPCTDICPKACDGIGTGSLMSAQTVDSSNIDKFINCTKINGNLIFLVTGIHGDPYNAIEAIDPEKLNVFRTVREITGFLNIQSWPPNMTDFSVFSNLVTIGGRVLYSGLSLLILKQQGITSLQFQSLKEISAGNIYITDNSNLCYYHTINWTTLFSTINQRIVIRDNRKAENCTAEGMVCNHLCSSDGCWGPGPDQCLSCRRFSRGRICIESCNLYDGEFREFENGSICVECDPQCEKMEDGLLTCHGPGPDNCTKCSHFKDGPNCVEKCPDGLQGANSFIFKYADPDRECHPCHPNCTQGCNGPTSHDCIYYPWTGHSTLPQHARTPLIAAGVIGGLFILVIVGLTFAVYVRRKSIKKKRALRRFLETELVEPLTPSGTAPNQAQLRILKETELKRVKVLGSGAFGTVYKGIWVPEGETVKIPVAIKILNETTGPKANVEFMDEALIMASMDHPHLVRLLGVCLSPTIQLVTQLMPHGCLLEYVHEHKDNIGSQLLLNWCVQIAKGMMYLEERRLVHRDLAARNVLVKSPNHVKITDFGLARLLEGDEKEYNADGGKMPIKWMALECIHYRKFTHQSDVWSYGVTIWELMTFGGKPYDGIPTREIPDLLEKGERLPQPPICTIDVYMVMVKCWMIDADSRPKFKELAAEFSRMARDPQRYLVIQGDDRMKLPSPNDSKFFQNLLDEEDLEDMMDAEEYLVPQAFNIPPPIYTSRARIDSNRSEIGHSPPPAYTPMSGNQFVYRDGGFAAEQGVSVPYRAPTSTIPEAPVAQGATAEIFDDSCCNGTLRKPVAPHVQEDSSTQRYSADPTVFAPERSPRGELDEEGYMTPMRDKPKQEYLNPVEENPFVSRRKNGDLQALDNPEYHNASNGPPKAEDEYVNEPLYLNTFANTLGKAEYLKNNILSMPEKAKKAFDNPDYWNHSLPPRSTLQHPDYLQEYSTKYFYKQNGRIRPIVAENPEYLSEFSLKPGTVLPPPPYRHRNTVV"}, "[11]": {"biological_target": "HIPK2 (human) (UniProt Q9H2X6)", "sequence (Q9H2X6 whole entry, looked up)": "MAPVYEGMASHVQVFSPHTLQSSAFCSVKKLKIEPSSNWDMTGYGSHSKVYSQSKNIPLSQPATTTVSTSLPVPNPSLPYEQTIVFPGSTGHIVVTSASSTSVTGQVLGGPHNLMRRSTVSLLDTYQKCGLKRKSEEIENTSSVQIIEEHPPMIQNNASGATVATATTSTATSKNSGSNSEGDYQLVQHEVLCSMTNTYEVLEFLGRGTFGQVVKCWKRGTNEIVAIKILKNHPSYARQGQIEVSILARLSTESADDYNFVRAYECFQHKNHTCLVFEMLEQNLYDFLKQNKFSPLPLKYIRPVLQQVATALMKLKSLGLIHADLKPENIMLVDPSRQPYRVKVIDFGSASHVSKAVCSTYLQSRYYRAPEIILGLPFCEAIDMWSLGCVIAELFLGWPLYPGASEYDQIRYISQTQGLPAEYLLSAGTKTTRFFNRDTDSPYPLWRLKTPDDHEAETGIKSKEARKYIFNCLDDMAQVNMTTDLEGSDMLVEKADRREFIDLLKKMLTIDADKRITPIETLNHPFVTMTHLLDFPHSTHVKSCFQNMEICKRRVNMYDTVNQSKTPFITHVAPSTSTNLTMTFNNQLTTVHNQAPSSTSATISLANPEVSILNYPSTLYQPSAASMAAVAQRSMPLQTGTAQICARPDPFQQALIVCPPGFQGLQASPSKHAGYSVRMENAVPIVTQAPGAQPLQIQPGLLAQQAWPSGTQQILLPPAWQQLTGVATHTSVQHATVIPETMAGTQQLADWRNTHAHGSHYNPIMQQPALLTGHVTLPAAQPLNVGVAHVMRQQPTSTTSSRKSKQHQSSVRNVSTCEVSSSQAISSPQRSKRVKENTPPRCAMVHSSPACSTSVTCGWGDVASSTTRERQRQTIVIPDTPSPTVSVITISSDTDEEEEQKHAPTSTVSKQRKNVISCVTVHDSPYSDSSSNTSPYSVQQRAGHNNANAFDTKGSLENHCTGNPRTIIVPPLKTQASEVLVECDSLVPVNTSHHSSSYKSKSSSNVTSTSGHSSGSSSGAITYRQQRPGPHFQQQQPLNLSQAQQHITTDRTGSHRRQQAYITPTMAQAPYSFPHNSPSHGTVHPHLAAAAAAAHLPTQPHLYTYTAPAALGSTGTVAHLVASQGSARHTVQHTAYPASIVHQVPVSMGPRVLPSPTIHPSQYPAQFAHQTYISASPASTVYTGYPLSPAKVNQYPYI"}, "[12]": {"biological_target": "IKBKE (human) (UniProt Q14164)", "settings": "compound 10.0 µM"}, "[13]": {"biological_target": "MAP2K6 (human) (UniProt P52564)"}, "[14]": {"biological_target": "MAP3K11 (human) (UniProt Q16584)"}, "[15]": {"biological_target": "MAPK1 (human) (UniProt P28482)"}, "[16]": {"biological_target": "MAPK10 (human) (UniProt P53779)"}, "[17]": {"biological_target": "MAPK12 (human) (UniProt P53778)", "sequence (P53778 whole entry, looked up)": "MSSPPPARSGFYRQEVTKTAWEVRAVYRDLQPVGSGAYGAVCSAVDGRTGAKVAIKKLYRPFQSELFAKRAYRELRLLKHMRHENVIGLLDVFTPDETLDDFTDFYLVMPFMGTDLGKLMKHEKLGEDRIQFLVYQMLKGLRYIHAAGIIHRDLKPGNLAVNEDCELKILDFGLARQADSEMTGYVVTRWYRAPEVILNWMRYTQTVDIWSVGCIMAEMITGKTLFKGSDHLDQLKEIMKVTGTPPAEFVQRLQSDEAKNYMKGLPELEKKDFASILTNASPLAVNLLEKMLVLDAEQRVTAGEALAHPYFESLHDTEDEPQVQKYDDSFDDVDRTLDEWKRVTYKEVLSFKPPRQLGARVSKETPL"}, "[18]": {"biological_target": "MAPK13 (human) (UniProt O15264)"}, "[19]": {"biological_target": "MAPK3 (human) (UniProt P27361)"}, "[20]": {"biological_target": "MAPK8 (human) (UniProt P45983)"}, "[21]": {"biological_target": "MAPKAPK3 (human) (UniProt Q16644)"}, "[22]": {"biological_target": "MARK2 (human) (UniProt Q7KZI7)", "sequence (Q7KZI7 whole entry, looked up)": "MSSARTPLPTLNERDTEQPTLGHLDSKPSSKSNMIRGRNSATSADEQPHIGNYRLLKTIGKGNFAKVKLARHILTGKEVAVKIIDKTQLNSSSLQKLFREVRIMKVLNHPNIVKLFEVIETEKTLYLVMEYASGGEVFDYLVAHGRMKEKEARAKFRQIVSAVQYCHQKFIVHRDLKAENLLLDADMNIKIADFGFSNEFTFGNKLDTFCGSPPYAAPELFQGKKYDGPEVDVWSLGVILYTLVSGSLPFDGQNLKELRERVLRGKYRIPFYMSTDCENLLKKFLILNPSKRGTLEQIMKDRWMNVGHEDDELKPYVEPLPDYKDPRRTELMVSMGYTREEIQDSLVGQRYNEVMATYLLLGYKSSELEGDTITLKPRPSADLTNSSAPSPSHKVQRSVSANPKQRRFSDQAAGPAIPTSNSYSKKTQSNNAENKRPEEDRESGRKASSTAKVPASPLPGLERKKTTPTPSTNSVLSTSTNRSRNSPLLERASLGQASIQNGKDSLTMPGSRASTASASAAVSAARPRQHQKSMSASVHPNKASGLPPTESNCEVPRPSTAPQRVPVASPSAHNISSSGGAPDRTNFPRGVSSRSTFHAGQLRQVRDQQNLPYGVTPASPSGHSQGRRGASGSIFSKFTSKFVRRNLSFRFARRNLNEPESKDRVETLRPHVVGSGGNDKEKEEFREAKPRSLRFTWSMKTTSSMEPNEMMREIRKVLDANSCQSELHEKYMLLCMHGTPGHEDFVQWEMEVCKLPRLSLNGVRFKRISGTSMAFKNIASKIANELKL"}, "[23]": {"biological_target": "MKNK1 (human) (UniProt Q9BUB5)"}, "[24]": {"biological_target": "MST4 (human) (UniProt Q9P289)"}, "[25]": {"biological_target": "NEK2 (human) (UniProt P51955)"}, "[26]": {"biological_target": "NUAK1 (human) (UniProt O60285)"}, "[27]": {"biological_target": "PAK4 (human) (UniProt O96013)"}, "[28]": {"biological_target": "PAK7 (human) (UniProt Q9P286)"}, "[29]": {"biological_target": "PLK1 (human) (UniProt P53350)"}, "[30]": {"system": "PRKAA1 or PRKAA2 (rat)", "settings": "accession and sequence are those of the human protein"}, "[31]": {"biological_target": "PRKACA (human) (UniProt P17612)"}, "[32]": {"biological_target": "PRKCA (human) (UniProt P17252)"}, "[33]": {"biological_target": "RPS6KA1 KD1 KD2 (human) (UniProt Q15418)"}, "[34]": {"system": "SGK1 (human), O00141 [S422D]"}, "[35]": {"biological_target": "SYK (human) (UniProt P43405)", "settings": "compound 10.0 µM"}},
  "data": [
    {"compound": "NCC(=O)Nc1ccc(-n2nc(C(F)(F)F)cc2-c2ccc3c(ccc4ccccc43)c2)cc1", "values": [
      {"measurement": "residual activity", "setting": "[1]; compound 1.0 µM", "value": 91, "unit": "%"},
      {"measurement": "residual activity", "setting": "[1]; compound 10.0 µM", "value": 53, "unit": "%"},
      {"measurement": "residual activity", "setting": "[2]; compound 1.0 µM", "value": 95, "unit": "%"},
      {"measurement": "residual activity", "setting": "[2]; compound 10.0 µM", "value": 107, "unit": "%"},
      {"measurement": "residual activity", "setting": "[3]; compound 1.0 µM", "value": 76, "unit": "%"},
      {"measurement": "residual activity", "setting": "[3]; compound 10.0 µM", "value": 64, "unit": "%"},
      {"measurement": "residual activity", "setting": "[4]", "value": 76, "unit": "%"},
      {"measurement": "residual activity", "setting": "[5]; compound 1.0 µM", "value": 109, "unit": "%"},
      {"measurement": "residual activity", "setting": "[5]; compound 10.0 µM", "value": 21, "unit": "%"},
      {"measurement": "residual activity", "setting": "[6]", "value": 82, "unit": "%"},
      {"measurement": "residual activity", "setting": "[7]; compound 1.0 µM", "value": 89, "unit": "%"},
      {"measurement": "residual activity", "setting": "[7]; compound 10.0 µM", "value": 121, "unit": "%"},
      {"measurement": "residual activity", "setting": "[8]; compound 1.0 µM", "value": 82, "unit": "%"},
      {"measurement": "residual activity", "setting": "[8]; compound 10.0 µM", "value": 91, "unit": "%"},
      {"measurement": "residual activity", "setting": "[9]; compound 1.0 µM", "value": 72, "unit": "%"},
      {"measurement": "residual activity", "setting": "[9]; compound 10.0 µM", "value": 82, "unit": "%"},
      {"measurement": "residual activity", "setting": "[10]; compound 1.0 µM", "value": 106, "unit": "%"},
      {"measurement": "residual activity", "setting": "[10]; compound 10.0 µM", "value": 104, "unit": "%"},
      {"measurement": "residual activity", "setting": "[11]; compound 1.0 µM", "value": 88, "unit": "%"},
      {"measurement": "residual activity", "setting": "[11]; compound 10.0 µM", "value": 69, "unit": "%"},
      {"measurement": "residual activity", "setting": "[12]", "value": 101, "unit": "%"},
      {"measurement": "residual activity", "setting": "[13]; compound 1.0 µM", "value": 82, "unit": "%"},
      {"measurement": "residual activity", "setting": "[13]; compound 10.0 µM", "value": 74, "unit": "%"},
      {"measurement": "residual activity", "setting": "[14]; compound 1.0 µM", "value": 94, "unit": "%"},
      {"measurement": "residual activity", "setting": "[14]; compound 10.0 µM", "value": 87, "unit": "%"},
      {"measurement": "residual activity", "setting": "[15]; compound 1.0 µM", "value": 101, "unit": "%"},
      {"measurement": "residual activity", "setting": "[15]; compound 10.0 µM", "value": 88, "unit": "%"},
      {"measurement": "residual activity", "setting": "[16]; compound 1.0 µM", "value": 85, "unit": "%"},
      {"measurement": "residual activity", "setting": "[16]; compound 10.0 µM", "value": 86, "unit": "%"},
      {"measurement": "residual activity", "setting": "[17]; compound 1.0 µM", "value": 94, "unit": "%"},
      {"measurement": "residual activity", "setting": "[17]; compound 10.0 µM", "value": 70, "unit": "%"},
      {"measurement": "residual activity", "setting": "[18]; compound 1.0 µM", "value": 96, "unit": "%"},
      {"measurement": "residual activity", "setting": "[18]; compound 10.0 µM", "value": 70, "unit": "%"},
      {"measurement": "residual activity", "setting": "[19]; compound 1.0 µM", "value": 80, "unit": "%"},
      {"measurement": "residual activity", "setting": "[19]; compound 10.0 µM", "value": 63, "unit": "%"},
      {"measurement": "residual activity", "setting": "[20]; compound 1.0 µM", "value": 107, "unit": "%"},
      {"measurement": "residual activity", "setting": "[20]; compound 10.0 µM", "value": 103, "unit": "%"},
      {"measurement": "residual activity", "setting": "[21]; compound 1.0 µM", "value": 103, "unit": "%"},
      {"measurement": "residual activity", "setting": "[21]; compound 10.0 µM", "value": 97, "unit": "%"},
      {"measurement": "residual activity", "setting": "[22]; compound 1.0 µM", "value": 94, "unit": "%"},
      {"measurement": "residual activity", "setting": "[22]; compound 10.0 µM", "value": 89, "unit": "%"},
      {"measurement": "residual activity", "setting": "[23]; compound 1.0 µM", "value": 86, "unit": "%"},
      {"measurement": "residual activity", "setting": "[23]; compound 10.0 µM", "value": 83, "unit": "%"},
      {"measurement": "residual activity", "setting": "[24]; compound 1.0 µM", "value": 80, "unit": "%"},
      {"measurement": "residual activity", "setting": "[24]; compound 10.0 µM", "value": 72, "unit": "%"},
      {"measurement": "residual activity", "setting": "[25]; compound 1.0 µM", "value": 96, "unit": "%"},
      {"measurement": "residual activity", "setting": "[25]; compound 10.0 µM", "value": 92, "unit": "%"},
      {"measurement": "residual activity", "setting": "[26]; compound 1.0 µM", "value": 85, "unit": "%"},
      {"measurement": "residual activity", "setting": "[26]; compound 10.0 µM", "value": 61, "unit": "%"},
      {"measurement": "residual activity", "setting": "[27]; compound 1.0 µM", "value": 84, "unit": "%"},
      {"measurement": "residual activity", "setting": "[27]; compound 10.0 µM", "value": 70, "unit": "%"},
      {"measurement": "residual activity", "setting": "[28]; compound 1.0 µM", "value": 87, "unit": "%"},
      {"measurement": "residual activity", "setting": "[28]; compound 10.0 µM", "value": 107, "unit": "%"},
      {"measurement": "residual activity", "setting": "[29]; compound 1.0 µM", "value": 95, "unit": "%"},
      {"measurement": "residual activity", "setting": "[29]; compound 10.0 µM", "value": 111, "unit": "%"},
      {"measurement": "residual activity", "setting": "[30]; compound 1.0 µM", "value": 99, "unit": "%"},
      {"measurement": "residual activity", "setting": "[30]; compound 10.0 µM", "value": 105, "unit": "%"},
      {"measurement": "residual activity", "setting": "[31]; compound 1.0 µM", "value": 100, "unit": "%"},
      {"measurement": "residual activity", "setting": "[31]; compound 10.0 µM", "value": 93, "unit": "%"},
      {"measurement": "residual activity", "setting": "[32]; compound 1.0 µM", "value": 94, "unit": "%"},
      {"measurement": "residual activity", "setting": "[32]; compound 10.0 µM", "value": 90, "unit": "%"},
      {"measurement": "residual activity", "setting": "[33]; compound 1.0 µM", "value": 87, "unit": "%"},
      {"measurement": "residual activity", "setting": "[33]; compound 10.0 µM", "value": 63, "unit": "%"},
      {"measurement": "residual activity", "setting": "[34]; compound 1.0 µM", "value": 71, "unit": "%"},
      {"measurement": "residual activity", "setting": "[34]; compound 10.0 µM", "value": 30, "unit": "%"},
      {"measurement": "residual activity", "setting": "[35]", "value": 85, "unit": "%"}
    ]}
  ]
}
